Measurements: patent US20240391931A1 (Bristol-Myers Squibb Company, priority 2021, published 2024)

What was measured:
[1] = target: T1, HER2 wildtype (WT) protein (Homo sapiens, UniProt P04626); experiment: HER2 signaling (pHER2 Tyr1248/total HER2 MSD) in BT474 cells; assay type: cell-based; conditions: 1.5 hr compound, 1% FBS
T1 construct: BT474 and N87 cell lines which endogenously overexpress the HER2 wildtype (WT) protein; endogenous in cells; host or cells: BT474, N87
In short: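 BT474, N87 (HER2 WT) and NCI-H1781 (HER2 G776delinsVC) cells were treated for 1.5 h at 37° C in 1% FBS medium with compound at 0.0005–1.1 μM. pHER2 Tyr1248 was measured by MSD on whole-cell lysates and normalized to total HER2 as % DMSO. EC50 came from a variable-slope sigmoidal fit.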

HER2 WT = target: T2, HER2 WT (Homo sapiens, UniProt P04626); experiment: Enzymatic assay HER2 WT (method a); assay type: biochemical; conditions: [HER2 WT]=12.5 nM, [ATP]=25 μM, [Peptide 22]=1 μM
T2 construct: purchased ProQinase, Freiburg, Germany ERBB2 0108-0000-1
In short: (§1)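 Microfluidic mobility-shift kinase assay with Peptide 22 (1 μM) in HEPES pH 7.5, MnCl2, MgCl2, Tween 20, TCEP. HER2 WT 12.5 nM and HER2 YVMA 5 nM each used 25 μM ATP; EGFR WT 2 nM used 1 mM ATP. IC50 came from initial-velocity (0–3600 s) percent inhibition, fitted to a variable-slope model.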

HER2YVMA = HER2YVMA (Homo sapiens, UniProt P04626, INS775YVMA); experiment: Enzymatic assay HER2YVMA (method b); assay type: biochemical; parameters: purchased Viva biotech, Shanghai, China custom purification; conditions: [HER2YVMA]=5 nM, [ATP]=25 μM, [Peptide 22]=1 μM
In short: as §1

Sequence of HER2YVMA (P04626 with tags, fused parts or gaps INS775YVMA): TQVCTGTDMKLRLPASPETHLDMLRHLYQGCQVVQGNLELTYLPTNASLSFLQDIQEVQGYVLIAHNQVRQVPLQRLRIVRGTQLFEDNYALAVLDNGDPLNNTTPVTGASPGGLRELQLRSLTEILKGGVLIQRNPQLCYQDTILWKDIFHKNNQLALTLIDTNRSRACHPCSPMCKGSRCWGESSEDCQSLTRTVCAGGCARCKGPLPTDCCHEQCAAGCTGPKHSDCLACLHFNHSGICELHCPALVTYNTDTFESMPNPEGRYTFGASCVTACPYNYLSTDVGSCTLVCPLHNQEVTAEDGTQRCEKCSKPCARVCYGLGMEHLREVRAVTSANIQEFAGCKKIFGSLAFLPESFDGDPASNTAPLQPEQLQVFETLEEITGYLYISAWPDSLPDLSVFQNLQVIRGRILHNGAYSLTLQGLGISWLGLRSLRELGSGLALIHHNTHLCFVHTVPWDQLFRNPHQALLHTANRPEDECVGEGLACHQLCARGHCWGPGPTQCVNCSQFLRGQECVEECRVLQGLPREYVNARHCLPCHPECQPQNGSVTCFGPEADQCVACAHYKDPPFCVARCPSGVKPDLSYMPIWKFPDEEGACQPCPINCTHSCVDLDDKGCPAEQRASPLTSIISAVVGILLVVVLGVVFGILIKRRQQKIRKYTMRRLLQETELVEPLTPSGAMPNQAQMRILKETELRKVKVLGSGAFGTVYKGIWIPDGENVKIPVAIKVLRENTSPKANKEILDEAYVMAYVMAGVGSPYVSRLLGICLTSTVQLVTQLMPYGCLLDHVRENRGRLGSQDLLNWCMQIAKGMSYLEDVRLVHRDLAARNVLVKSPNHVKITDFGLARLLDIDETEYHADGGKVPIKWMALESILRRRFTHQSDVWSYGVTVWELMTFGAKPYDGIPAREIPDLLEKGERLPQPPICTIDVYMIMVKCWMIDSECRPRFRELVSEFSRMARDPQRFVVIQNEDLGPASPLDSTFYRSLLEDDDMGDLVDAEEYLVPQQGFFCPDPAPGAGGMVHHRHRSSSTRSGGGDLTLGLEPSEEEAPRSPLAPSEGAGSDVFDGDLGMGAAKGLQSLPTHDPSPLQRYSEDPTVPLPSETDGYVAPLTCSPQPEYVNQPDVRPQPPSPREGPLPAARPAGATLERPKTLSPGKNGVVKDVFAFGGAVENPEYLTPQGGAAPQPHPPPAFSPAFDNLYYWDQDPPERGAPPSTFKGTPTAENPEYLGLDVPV
T2 sequence (P04626 23-1255): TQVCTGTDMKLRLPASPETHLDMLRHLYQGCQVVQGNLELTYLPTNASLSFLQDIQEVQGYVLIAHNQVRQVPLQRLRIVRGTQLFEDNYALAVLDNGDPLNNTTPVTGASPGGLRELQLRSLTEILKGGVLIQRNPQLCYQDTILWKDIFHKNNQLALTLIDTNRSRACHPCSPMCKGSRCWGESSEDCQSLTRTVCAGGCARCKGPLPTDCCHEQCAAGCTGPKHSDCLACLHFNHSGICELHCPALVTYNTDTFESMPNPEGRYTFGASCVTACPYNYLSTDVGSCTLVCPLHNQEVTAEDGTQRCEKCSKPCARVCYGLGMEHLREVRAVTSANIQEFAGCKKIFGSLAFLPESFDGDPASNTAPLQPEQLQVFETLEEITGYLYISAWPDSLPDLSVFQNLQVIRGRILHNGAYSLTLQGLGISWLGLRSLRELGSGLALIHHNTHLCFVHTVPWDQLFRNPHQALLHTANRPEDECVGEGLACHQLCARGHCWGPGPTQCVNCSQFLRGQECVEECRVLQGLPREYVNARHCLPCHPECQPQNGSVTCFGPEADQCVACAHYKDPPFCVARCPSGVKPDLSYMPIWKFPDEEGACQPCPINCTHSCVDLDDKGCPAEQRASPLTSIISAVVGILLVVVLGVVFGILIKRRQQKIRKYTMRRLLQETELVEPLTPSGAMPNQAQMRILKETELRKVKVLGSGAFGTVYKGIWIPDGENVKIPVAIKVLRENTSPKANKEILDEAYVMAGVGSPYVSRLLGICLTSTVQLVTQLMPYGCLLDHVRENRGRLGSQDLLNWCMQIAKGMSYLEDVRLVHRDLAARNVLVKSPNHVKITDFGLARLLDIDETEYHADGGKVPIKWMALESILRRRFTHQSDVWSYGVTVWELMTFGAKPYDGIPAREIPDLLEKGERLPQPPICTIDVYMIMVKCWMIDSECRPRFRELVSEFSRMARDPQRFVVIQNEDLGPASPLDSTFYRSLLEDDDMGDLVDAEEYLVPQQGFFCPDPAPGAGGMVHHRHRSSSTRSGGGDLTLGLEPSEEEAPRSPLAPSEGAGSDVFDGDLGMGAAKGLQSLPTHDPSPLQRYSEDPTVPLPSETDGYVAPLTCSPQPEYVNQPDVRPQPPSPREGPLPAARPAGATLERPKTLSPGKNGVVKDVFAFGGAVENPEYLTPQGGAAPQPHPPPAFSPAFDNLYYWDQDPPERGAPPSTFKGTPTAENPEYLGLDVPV
T1 sequence (P04626 23-1255): as above

| Structure (SMILES) | EC50 [1] | IC50 (HER2 WT) | IC50 (HER2YVMA) |
| --- | --- | --- | --- |
| Cc1cc(Nc2ncnc3sc4c(c23)CCN(C(=O)/C=C/CN2CC3CCC(C3)C2)C4)ccc1Oc1ccc2ncnn2c1 [Compound 20] | < 100 nM | < 100 nM | < 100 nM |
| O=C(/C=C/CN1CC2CC(C2)C1)N1CCc2c(sc3ncnc(Nc4ccc(Oc5ccc6ncnn6c5)c(Cl)c4)c23)C1 [Compound 85] | < 100 nM | < 100 nM | < 100 nM |
| Cc1ccc(Oc2ccc(Nc3ncnc4sc5c(c34)CCN(C(=O)/C=C/CN3C4CCC3CC4)C5)cc2C)cn1 [Compound 44] | < 100 nM | < 100 nM | < 100 nM |
| O=C(/C=C/CN1CC2C(CO)C2C1)N1CCc2c(sc3ncnc(Nc4ccc(Oc5ccc6ncnn6c5)c(Cl)c4)c23)C1 (stereo not drawn) [Compound 92] | < 100 nM | < 100 nM | < 100 nM |
| C=C(CN1CCc2c(sc3ncnc(Nc4ccc(Oc5ccc(C)nc5)c(C)c4)c23)C1)C(=O)OCC [Compound 86, Ethyl 2-((4-((3-methyl-4-((6-methylpyridin-3-yl)oxy)phenyl)amino)-5,8-dihydropyrido[4′,3′:4,5]thieno[2,3-d]pyrimidin-7(6H)-yl)methyl)acrylate] | 100 to 350 nM | 100 to 1000 nM | 1000 to 10000 nM |
| C=CC(=O)N1CCc2[nH]c3ncnc(Nc4ccc(Oc5ccc6ncnn6c5)c(C)c4)c3c2C1 [Compound 102, 1-(4-((4-([1,2,4]triazolo[1,5-a]pyridin-6-yloxy)-3-methylphenyl)amino)-5,7,8,9-tetrahydro-6H-pyrido[3′,4′:4,5]pyrrolo[2,3-d]pyrimidin-6-yl)prop-2-en-1-one] | < 100 nM | < 100 nM | < 100 nM |
| Cc1ccc(Oc2ccc(Nc3ncnc4sc5c(c34)CCN(C(=O)/C=C/CN[C@H]3CC[C@H](OC(F)F)CC3)C5)cc2C)cn1 [Compound 69] | < 100 nM | < 100 nM | < 100 nM |
| Cc1ccc(Oc2ccc(Nc3ncnc4sc5c(c34)CCN(C(=O)/C=C/CN3CCn4cc(C(F)(F)F)nc4C3)C5)cc2C)cn1 [Compound 61] | 350 to 1000 nM | 1000 to 10000 nM | 1000 to 10000 nM |
| Cc1ccc(Oc2ccc(Nc3ncnc4sc5c(c34)CCN(C(=O)/C=C/CN3CCC(n4ccnc4)CC3)C5)cc2C)cn1 [Compound 62] | < 100 nM | < 100 nM | < 100 nM |
| C=CC(=O)N1CCc2c(sc3ncnc(Nc4ccc(Oc5ccc6ncnn6c5)c(Cl)c4)c23)C1 [Compound 4, 1-(4-((4-([1,2,4]triazolo[1,5-a]pyridin-6-yloxy)-3-chlorophenyl)amino)-5,8-dihydropyrido[4′,3′:4,5]thieno[2,3-d]pyrimidin-7(6H)-yl)prop-2-en-1-one] | < 100 nM | < 100 nM | < 100 nM |
| Cc1cc(Nc2ncnc3sc4c(c23)CCN(C(=O)/C=C/CN2CC3CC(C3)C2)C4)ccc1Oc1ccc2ncnn2c1 [Compound 82] | < 100 nM | < 100 nM | < 100 nM |
| O=C(/C=C/CN1CC2CC1CO2)N1CCc2c(sc3ncnc(Nc4ccc(Oc5ccc6ncnn6c5)c(Cl)c4)c23)C1 (stereo not drawn) [Compound 87] | < 100 nM | < 100 nM | < 100 nM |
| COCCN1CCN(C/C=C/C(=O)N2CCc3c(sc4ncnc(Nc5ccc(Oc6ccc(C)nc6)c(C)c5)c34)C2)CC1 [Compound 59] | < 100 nM | < 100 nM | 100 to 1000 nM |
| O=C(/C=C/CN1CC2CCC(C2)C1)N1CCc2c(sc3ncnc(Nc4ccc(Oc5ccc6ncnn6c5)c(Cl)c4)c23)C1 [Compound 88] | < 100 nM | < 100 nM | < 100 nM |

Further lines, results first:

| EC50 [1] | IC50 (HER2 WT) | IC50 (HER2YVMA) | Structure (SMILES) |
| --- | --- | --- | --- |
| < 100 nM | < 100 nM | < 100 nM | Cc1ccc(Oc2ccc(Nc3ncnc4sc5c(c34)CCN(C(=O)/C=C/CNC3CCC(C(=O)N(C)C)CC3)C5)cc2C)cn1 (stereo not drawn) [Compound 71] |
| < 100 nM | < 100 nM | < 100 nM | Cc1cc(Nc2ncnc3sc4c(c23)CCN(C(=O)/C=C/CN(C)C)C4)ccc1Oc1ccc2cn[nH]c2c1 [Compound 23, (E)-1-(4-((4-((1H-indazol-6-yl)oxy)-3-methylphenyl)amino)-5,8-dihydropyrido[4′,3′:4,5]thieno[2,3-d]pyrimidin-7(6H)-yl)-4-(dimethylamino)but-2-en-1-one] |
| < 100 nM | < 100 nM | < 100 nM | Cc1ccc(Oc2ccc(Nc3ncnc4sc5c(c34)CCN(C(=O)/C=C/CN3CCCC3C(N)=O)C5)cc2C)cn1 (stereo not drawn) [Compound 41] |
| < 100 nM | < 100 nM | < 100 nM | Cc1cc(Nc2ncnc3sc4c(c23)CCN(C(=O)/C=C/CN(C)C(C)(C)C)C4)ccc1Oc1ccc2ncnn2c1 [Compound 80] |
| < 100 nM | < 100 nM | < 100 nM | Cc1ccc(Oc2ccc(Nc3ncnc4sc5c(c34)CCN(C(=O)/C=C/CNC3CC3)C5)cc2C)cn1 [Compound 40] |
| < 100 nM | < 100 nM | < 100 nM | Cc1ccc(Oc2ccc(Nc3ncnc4sc5c(c34)C(C)CN(C(=O)C=CCN(C)C)C5)cc2C)cn1 (single isomer, unassigned) [Compound 105] |
| 350 to 1000 nM | 100 to 1000 nM | 100 to 1000 nM | CON(C)C/C=C/C(=O)N1CCc2c(sc3ncnc(Nc4ccc(Oc5ccc(C)nc5)c(C)c4)c23)C1 [Compound 56] |
| < 100 nM | < 100 nM | < 100 nM | Cc1cc(Nc2ncnc3sc4c(c23)CCN(C(=O)/C=C/CN(C)C)C4)ccc1Oc1cccc(B(O)O)c1 [Compound 64, (E)-(3-(4-((7-(4-(dimethylamino)but-2-enoyl)-5,6,7,8-tetrahydropyrido[4′,3′:4,5]thieno[2,3-d]pyrimidin-4-yl)amino)-2-methylphenoxy)phenyl)boronic acid] |
| < 100 nM | < 100 nM | < 100 nM | Cc1ccc(Oc2ccc(Nc3ncnc4sc5c(c34)CCN(C(=O)/C=C/CN3CC4CC4C3)C5)cc2C)cn1 (stereo not drawn) [Compound 76] |
| < 100 nM | < 100 nM | < 100 nM | Cc1ccc(Oc2ccc(Nc3ncnc4[nH]c5c(c34)CN(C(=O)/C=C/CN(C)C)CC5)cc2C)cn1 [Compound 97, (E)-4-(dimethylamino)-1-(4-((3-methyl-4-((6-methylpyridin-3-yl)oxy)phenyl)amino)-5,7,8,9-tetrahydro-6H-pyrido[3′,4′:4,5]pyrrolo[2,3-d]pyrimidin-6-yl)but-2-en-1-one] |
| < 100 nM | < 100 nM | < 100 nM | Cc1cc(Nc2ncnc3sc4c(c23)CCN(C(=O)/C=C/CN(C)C)C4)ccc1Oc1ccc2nonc2c1 [Compound 104, (E)-1-(4-((4-(Benzo[c][1,2,5]oxadiazol-5-yloxy)-3-methylphenyl)amino)-5,6-dihydropyrido[4′,3′:4,5]thieno[2,3-d]pyrimidin-7(8H)-yl)-4-(dimethylamino)but-2-en-1-one] |
| < 100 nM | < 100 nM | < 100 nM | Cc1ccc(Oc2ccc(Nc3ncnc4sc5c(c34)CCN(C(=O)/C=C/CNCCS(C)(=O)=O)C5)cc2C)cn1 [Compound 45] |
| < 100 nM | 100 to 1000 nM | < 100 nM | Cc1cc(Nc2ncnc3sc4c(c23)CN(C(=O)/C=C/CN(C)C)CC4)ccc1Oc1ccc2ncnn2c1 [Compound 103, (E)-1-(4-((4-([1,2,4]triazolo[1,5-a]pyridin-6-yloxy)-3-methylphenyl)amino)-7,8-dihydropyrido[3′,4′:4,5]thieno[2,3-d]pyrimidin-6(5H)-yl)-4-(dimethylamino)but-2-en-1-one] |
| < 100 nM | 100 to 1000 nM | 100 to 1000 nM | Cc1ncc(Oc2ccc(Nc3ncnc4sc5c(c34)CCN(C(=O)/C=C/CN(C)C)C5)cc2C)cn1 [Compound 21, (E)-4-(dimethylamino)-1-(4-((3-methyl-4-((2-methylpyrimidin-5-yl)oxy)phenyl)amino)-5,8-dihydropyrido[4′,3′:4,5]thieno[2,3-d]pyrimidin-7(6H)-yl)but-2-en-1-one] |
| < 100 nM | < 100 nM | < 100 nM | CCOC/C=C/C(=O)N1CCc2c(sc3ncnc(Nc4ccc(Oc5ccc(C)nc5)c(C)c4)c23)C1 [Compound 96, (E)-4-ethoxy-1-(4-((3-methyl-4-((6-methylpyridin-3-yl)oxy)phenyl)amino)-5,8-dihydropyrido[4′,3′:4,5]thieno[2,3-d]pyrimidin-7(6H)-yl)but-2-en-1-one] |
| < 100 nM | < 100 nM | < 100 nM | Cc1ccc(Oc2ccc(Nc3ncnc4sc5c(c34)CCN(C(=O)/C=C/CN[C@@H](C)CO)C5)cc2C)cn1 [Compound 75] |
| < 100 nM | < 100 nM | < 100 nM | Cc1ccc(Oc2ccc(Nc3ncnc4sc5c(c34)CCN(C(=O)/C=C/CNC3CCC3)C5)cc2C)cn1 [Compound 54] |
| < 100 nM | < 100 nM | < 100 nM | Cc1ccc(Oc2ccc(Nc3ncnc4sc5c(c34)CCN(C(=O)/C=C/CN3CC=CCC3)C5)cc2C)cn1 [Compound 55] |
| 350 to 1000 nM | 100 to 1000 nM | 100 to 1000 nM | Cc1ccc(Oc2ccc(Nc3ncnc4sc5c(c34)CCN(C(=O)/C=C/CN3CC(O)CO3)C5)cc2C)cn1 (stereo not drawn) [Compound 43] |
